Results taken from US20240384268A1, “Oligonucleotides” (Hudson Institute of Medical Research, priority 2021, published 2024).
Like-named read-outs stand apart in the source and are kept apart here. In the oligonucleotide strings, read from the 5' end, every base follows the letter of its sugar. An asterisk marks phosphorothioate; unmarked linkages are phosphodiester. Other units and linkages are bracketed, terminal groups are in braces. A string of capitals states the bases alone. d = 2'-deoxy (DNA); m = 2'-O-methyl

Molecular target: cGAS (Homo sapiens, UniProt Q8N884)
Assay: ISD70-driven IP-10 (and IFN-β) production in THP-1 cells, ELISA
Format: cell-based
Design: endogenous in cells; host or cells: THP-1 (undifferentiated)
Settings: for IFN-β production after ISD70 transfection: reduction: 125 nM oligonucleotide 6 h, ISD70 overnight; for inhibition of ISD70-driven IP-10 production (in words): 2′OMe or PS oligos, 100-250 nM, pre-treatment as in figure legends, ISD70 2.5 μg/ml; for IC50: 6 h pre-treatment, ISD70 2.5 μg/ml overnight (FIG. 3A), read-out: IC50 (IP-10 production after ISD70 transfection); for cGAS 100 nM (averaged IP-10 level relative to ISD70 condition): ASO 100 nM, relative to ISD70 only, given as fraction

Chain of cGAS (Q8N884 whole entry): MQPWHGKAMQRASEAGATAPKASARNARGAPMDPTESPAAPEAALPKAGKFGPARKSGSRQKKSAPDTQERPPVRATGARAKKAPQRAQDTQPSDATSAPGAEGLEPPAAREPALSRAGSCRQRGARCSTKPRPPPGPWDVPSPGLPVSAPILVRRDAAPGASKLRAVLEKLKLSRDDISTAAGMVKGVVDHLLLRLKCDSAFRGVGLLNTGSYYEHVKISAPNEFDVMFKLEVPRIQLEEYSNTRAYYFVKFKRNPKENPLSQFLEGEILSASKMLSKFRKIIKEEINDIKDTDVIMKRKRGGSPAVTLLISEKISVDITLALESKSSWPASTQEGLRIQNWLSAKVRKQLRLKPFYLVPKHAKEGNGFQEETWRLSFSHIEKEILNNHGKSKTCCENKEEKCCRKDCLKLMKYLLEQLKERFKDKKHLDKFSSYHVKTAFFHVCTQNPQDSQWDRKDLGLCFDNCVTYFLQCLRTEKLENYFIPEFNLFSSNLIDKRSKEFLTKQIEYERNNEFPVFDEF

Substance	cGAS 100 nM (averaged IP-10 level relative to ISD70 condition)	other results
mG*mC*mG*mG*mU*A*T*C*C*A*T*G*T*C*C*mC*mA*mG*mG*mC (mG*mC*mG*mG*mU*dA*dT*dC*dC*dA*dT*dG*dT*dC*dC*mC*mA*mG*mG*mC; antisense) [C2-Mut1]		IFN-β production after ISD70 transfection: reduction (THP-1): blocked; inhibition of ISD70-driven IP-10 production (in words) (THP-1): most inhibitory sequence of ISD70 sensing; IC50 (THP-1, listed as C2-Mutl): ~56 nM; IC50 (THP-1): 56 nM
ACACTTCGTGGGGTCC (antisense; LNA-modified, pattern not given here) [HPRT LNA-665 V1]	0.516	
TGTGATGGCCTCCCAT (antisense; LNA-modified, pattern not given here) [HPRT LNA-334 V1]	0.557	
CAACACTTCGTGGGGT (antisense; LNA-modified, pattern not given here) [HPRT LNA-667 V1]	0.675	
GTTCAGTCCTGTCCAT (antisense; LNA-modified, pattern not given here) [HPRT LNA-292 V1]	0.563	
CCAAGATCAGCAGTCT (antisense; LNA-modified, pattern not given here) [CTNN2B-2341 LNA KL]	0.356	
GATAGCACCTTCAGCA (antisense; LNA-modified, pattern not given here) [CTNN2B-1294 LNA KL]	0.436	
TTTTGGCTGGGATCAA (antisense; LNA-modified, pattern not given here) [CAMSAP1-4697 LNA KL]	0.590	
GCCATCCACTTGATAG (antisense; LNA-modified, pattern not given here) [EGFR-2874 LNA V1]	0.688	
GGCTGGAATCCGAGTT (antisense; LNA-modified, pattern not given here) [EGFR-4705 LNA KL]	0.592	
TGCACACTTCGTACCC (antisense; LNA-modified, pattern not given here) [CAMSAP1-4916 LNA V1]	0.572	
mC*mG*mU*T*T*C*C*C*C*C*C*C*C*C*C*C*C*C*C*C (CGUTTCCCCCCCCCCCCCCC; antisense; sugars from the 5' end m3 d17, all phosphorothioate, methylation of C not given here) [[C2]Mut1-v3-dC]		inhibition of ISD70-driven IP-10 production (in words) (THP-1): lacked significant inhibitory activity
T*T*A* G*G*G* T*T*A* G*G*G* T*T*A* G*G*G* T*T*A* G*G*G [A151, reference compound]		IFN-β production after ISD70 transfection: reduction (THP-1): ~50%; IC50 (THP-1): 165 nM
GTGTCTGGAAGCTTCC (antisense; LNA-modified, pattern not given here) [CTNN2B-809 LNA V1]	0.482	inhibition of cGAS in THP-1, LNA and MOE ASO validation (in words) (THP-1, 300 nM LNA or 200 nM MOE ASO ~30 min, ISD70 overnight (FIG. 21, 23)): potently inhibited signalling
TTCGTGGGGTCCTTTT (antisense; LNA-modified, pattern not given here) [HPRT LNA-661 V1]	0.520	
GGTTACGGCTCAGTAT (antisense; LNA-modified, pattern not given here) [CAMSAP1-4295 LNA KL]	0.661	
GCAGGCTCAGTGATGT (antisense; LNA-modified, pattern not given here) [CTNN2B-1642 LNA V1]	0.458	
TGATGGCCTCCCATCT (antisense; LNA-modified, pattern not given here) [HPRT LNA-332 V1]	0.650	
mG*mG*mU*A*T*C*C*C*C*C*C*C*C*C*C*C*C*C*C*C (GGUATCCCCCCCCCCCCCCC; antisense; sugars from the 5' end m3 d17, all phosphorothioate, methylation of C not given here) [[C2]Mut1-dC]		inhibition of ISD70-driven IP-10 production (in words) (THP-1): significantly more inhibitory than its precursor dC20
TGGCCTCCCATCTCCT (antisense; LNA-modified, pattern not given here) [HPRT LNA-329 V1]	0.494	
TCCAACACTTCGTGGG (antisense; LNA-modified, pattern not given here) [HPRT LNA-669 V1]	0.539	
GCATCCACCACGTCGT (antisense; LNA-modified, pattern not given here) [EGFR-3267 LNA V1]	0.602	
GTATCGAAAGAGTCTG (antisense; LNA-modified, pattern not given here) [EGFR-3908 LNA KL]	0.609	
GTCTTGGCTTCGTGGA (antisense; LNA-modified, pattern not given here) [MB21D1-522 LNA V1]	0.620	
GCCATGTTTCTTCTTG (antisense; LNA-modified, pattern not given here) [MB21D1-1248 LNA KL]	0.639	
TCGTAGTTGCTTCCTA (antisense; LNA-modified, pattern not given here) [MB21D1-1181 LNA KL]	0.610	
GTCCCCTGTTGACTGG (antisense; LNA-modified, pattern not given here) [HPRT LNA-489 KL]	0.606	
CCATCCATGAGGTCCT (antisense; LNA-modified, pattern not given here) [CTNN2B-2545 LNA V1]	0.533	
GCCATGCTGGCTCGGA (antisense; LNA-modified, pattern not given here) [CAMSAP1-2584 LNA V1]	0.599	
